For this assay, the system named is CRABP-2. The assay can be described thus: CRABP-2 protein expression in fibroblasts by Western immuno-blotting and densitometric scanning. Format: cell-based, Human. Conditions: for As % of control: control as 100%. How it is done: Dried chick pea was purchased from local markets and powdered in a dry grinder. The alcoholic extract of chick pea was prepared by stirring 1 gram of the dry chick pea powder in 10 ml of ethanol for 4 to 24 hrs at room temperature. The extract was clarified by filtration and centrifugation, to obtain a 10% extract of chick pea in ethanol.
Human adult fibroblasts obtained from sun-protected inner arm of […] were used in this. Cells were grown in 1:1 DMEM/Hams F12 media containing 10% FBS, maintained at 37 C. in a 5% CO2 atmosphere under normal atmospheric oxygen tension. Third passage adult fibroblasts were grown in DMEM media with 10% FBS in 12-well plates at a seeding density of 40,000 cells/ml/well. The cells at 80% confluence were rinsed in serum free and phenol red free (PRF) DMEM media twice. Pre-treatment with chick pea extract for 4 hours was conducted and then dosed with retinoids and was incubated for 48 hours. After the incubation, the wells were washed twice with 1×PBS and the cell monolayer was harvested in 100 μI cell lysis buffer (contains 1×PBS, 1% TritonX, 0.5% sodium deoxycholate, 0.1% SDS containing protease inhibitor (10 mg/ml PMSF in isopropanol, 10 μl/ml)). The suspension was spun at 14000 rpm for 10 minutes, the supernatant collected and an aliquot of this supernatant was used for protein quantification. Protein concentration was determined using Pierce protein kit. The remainder of 100 μl supernatant (cell lysate) was denatured in a mixture of 40 μl sample buffer (NOVEX) and 0.5% Beta mercaptoethanol (BME) and by boiling the sample for 5 minutes. Equal amount of protein was then loaded onto 16% Tris-glycine gels for protein analysis by SDS page and Western Immuno-blotting for CRABP-2 protein expression.
To measure the levels of CRABP-2 in the fibroblasts prepared as described above, the cell supernatant was re-suspended in 4×sample buffer and 0.5% BME, boiled for 5 minutes and used for western blotting. Equal amounts of protein were loaded onto 16% Tris-glycine gels for CRABP-2 protein analysis by SDS page and Western Immuno-blotting. The gels were transferred to nitrocellulose blots and Western Blotting was carried out using monoclonal antibodies to CRABP-2 according to standard procedures. The CRABP-2 protein band was visualized in the Western Blots using the chemiluminescence system obtained from Santa Cruz Biotechnology (Santa Cruz, Calif.). The bands in the film were quantitated by densitometric scanning, the data from triplicate samples were calculated as % of control and expressed in the following tables as % increase over control (with control as 100%) +/−SD of triplicates.

The mark [1] stands for this setting: Example 1: 100 nM retinoids and 0.1 μl of a 10% chick pea extract, 4 h extract pre-treatment, 48 h incubation, +/- SD of triplicates.
[2] abbreviates: Example 1: 100 nM retinoids and 0.1 μl of a 10% chick pea extract, +/- SD of triplicates.
Where [3] appears, read: Example 1: 100 nM retinoids and 0.1 μl of a 10% chick pea extract.
The mark [4] stands for this setting: Example 3: 500 nM retinoids and 0.1 μl of a 10% chick pea extract, +/- SD of triplicates.
The mark [5] stands for this setting: Example 3: 500 nM retinoids and 0.1 μl of a 10% chick pea extract.
Where [6] appears, read: second table headed Example 3: 500 nM retinoids and 0.1 μl of a 10% chick pea extract, +/- SD of triplicates.
The mark [7] stands for this setting: second table headed Example 3: 500 nM retinoids and 0.1 μl of a 10% chick pea extract.

Take `CC1=C(/C=C/C(C)=C/C=C/C(C)=C/CO)C(C)(C)CCC1` [Retinol]: the CRABP-2 levels reads like this: under setting [1], 2.02 +/− 0.23; under setting [2], 2.02 +/− 0.23; under setting [4], 0.72 +/− 0.04; under setting [6], 0.72 +/− 0.04. The “As % of control” value is listed as 289 +/− 34 % of control under setting [3], 289 +/− 34 % of control under setting [2], 102 +/− 6 % of control under setting [5] and 102 +/− 6 % of control under setting [7].
As to `CCCCCCCCCCCCCCCC(=O)OC/C=C(C)/C=C/C=C(C)/C=C/C1=C(C)CCCC1(C)C` [Retinyl Palmitate, retinyl palmitate], the CRABP-2 levels under setting [1] is reported as 1.84 +/− 0.16, the CRABP-2 levels under setting [2] is on record as 1.84 +/− 0.16, the CRABP-2 levels under setting [4] is reported as 0.94 +/− 0.31 and the CRABP-2 levels under setting [6] was 0.94 +/− 0.31. Besides, the “As % of control” value under setting [3] is given as 262 +/− 24 % of control, the “As % of control” value under setting [2] is given as 262 +/− 24 % of control, the “As % of control” value under setting [5] is given as 135 +/− 45 % of control and the “As % of control” value under setting [7] was 135 +/− 45 % of control.
Consider `CC(=O)OC/C=C(C)/C=C/C=C(C)/C=C/C1=C(C)CCCC1(C)C` [Retinyl acetate, retinyl acetate], for which the CRABP-2 levels reads like this: under setting [1], 1.44 +/− 0.26; under setting [2], 1.44 +/− 0.26; under setting [4], 1.65 +/− 0.49; under setting [6], 1.65 +/− 0.49. Moreover, the “As % of control” value under setting [3] is on record as 206 +/− 37 % of control, the “As % of control” value under setting [2] is 206 +/− 37 % of control, the “As % of control” value under setting [5] is given as 235 +/− 70 % of control and the “As % of control” value under setting [7] is given as 235 +/− 70 % of control.
Regarding `CCCCC/C=C\C/C=C\CCCCCCCC(=O)OC/C=C(C)/C=C/C=C(C)/C=C/C1=C(C)CCCC1(C)C` [Retinyl linoleate, retinyl linoleate], the CRABP-2 levels reads like this: under setting [1], 2.06 +/− 0.09; under setting [2], 2.06 +/− 0.09; under setting [4], 0.81 +/− 0.16; under setting [6], 0.81 +/− 0.16. For the same compound, the “As % of control” value under setting [3] was 294 +/− 12 % of control, the “As % of control” value under setting [2] was 294 +/− 12 % of control, the “As % of control” value under setting [5] is 115 +/− 23 % of control and the “As % of control” value under setting [7] was 115 +/− 23 % of control.
